The subject of the test is Chlamydomonas reinhardtii, Nile Red lipid fluorescence, 72 h. In words: algal triacylglycerol accumulation inducers, dose response, qHTS, Chlamydomonas reinhardtii (AID 1159536). (In general: Quantitative high-throughput screening tests each substance at several concentrations.)

Records with an inconclusive call do not appear. Active and inactive are the calls of the source. How the calls were made is not given here.

For `O=C(Nc1ccc([N+](=O)[O-])cc1)c1cccc(Cl)c1Cl`, the EC50 (as a rule, the concentration giving half of the maximal effect) was 2.35 µM (inactive). In the case of `c1ccc(CCN2CCN(c3ccccc3)CC2)cc1` it was 0.157 µM. In the case of `CC(CNC(=O)c1ccc(C(C)(C)C)cc1)CN(C)C` (stereo not drawn) it was 10.3 µM; in that of `Oc1ccc(CN2CCN(Cc3ccccc3)CC2)cc1`, 11.2 µM. Consider `Cc1ccc(OCCCCN2CCCC2)cc1C`, for which the 50% effective concentration (EC50) was 5.2 µM. Take `Cc1cc(C)c(OCCCCN2CCNCC2)c(C)c1`: the half-maximal effective concentration (EC50) was 2.62 µM.

`CN1CCN(C2C3CC4CC(C3)CC2C4)CC1` (stereo not drawn): the EC50 was 9.7 µM. In the case of `CCOc1c(Cl)cc(C(=O)Nc2cccc([N+](=O)[O-])c2)cc1Cl` it was 13.4 µM (inactive). In the case of `O=C1CC(N2CCc3ccccc3C2)C(=O)N1c1ccc([N+](=O)[O-])cc1` (stereo not drawn) it was 15.7 µM (inactive); in that of `O=C(O)CCSCC(=O)c1ccc(NS(=O)(=O)c2ccccc2)cc1`, 30.6 µM (inactive).

With `O=C(NCCc1ccc(Cl)cc1)C(=O)Nc1nccs1`, the EC50 was 10.2 µM (inactive). Take `O=[N+]([O-])c1ccc(CN2CCN(Cc3ccccc3F)CC2)cc1`: the EC50 is 8.4 µM.

As to `CC(C)C(NS(=O)(=O)c1cccs1)C(C)C`, the EC50 was 21.6 µM (inactive). For `COc1cccc(N2CCN(CC3CC4C=CC3C4)CC2)c1` (stereo not drawn), the 50% effective concentration (EC50) is 1.26 µM. In the case of `COc1cccc(N2CCN(C3CCCC(C)C3)CC2)c1` (stereo not drawn) it was 6.34 µM; in that of `COc1ccccc1N1CCN(Cc2ccc(F)cc2)CC1`, 2.84 µM; in that of `OC(CNCCc1ccccc1)c1ccccc1` (stereo not drawn), 6.91 µM. Regarding `COc1ccccc1NC(=O)N1CCN(c2ccccn2)CC1`, the EC50 is 4.11 µM. In the case of `COc1ccccc1N1CCN(Cc2ccc(Cl)cc2)CC1` it was 1.61 µM; in that of `Oc1ccc(CN2CCN(c3cccc(Cl)c3)CC2)cc1`, 0.0276 µM; in that of `Cc1ccc(CN2CCN(CCO)CC2)cc1`, 16.1 µM. In the case of `CC(C)=CCC[C@H](C)CCN1CCN(C)CC1` it was 10 µM; in that of `c1coc(CN2CCN(C3CCCCC3)CC2)c1`, 12.2 µM; in that of `CCc1ccc(CN2CCN(CC)CC2)cc1`, 4.68 µM. As to `O=[N+]([O-])c1ccc(CN2CCN(C3CCCC3)CC2)cc1`, the EC50 is 0.0669 µM. Consider `CC(C)(Oc1ccc(Cl)cc1)C(=O)N1CCN(c2ccc(F)cc2)CC1`, for which the EC50 was 2.13 µM (inactive). Consider `Cc1cc(C)c(S(=O)(=O)N2CCN(C)CC2)cc1Br`, for which the EC50 was 15.8 µM. In the case of `Nc1ccc(F)cc1C(=O)c1ccccc1` it was 7.05 µM; in that of `O=C(CN1CCCCC1)NCC12CC3CC(CC(C3)C1)C2`, 9.27 µM. In the case of `COc1cc(Cl)c(S(=O)(=O)NCCCN2CCOCC2)cc1Cl` it was 3.61 µM. Take `Cc1ccc(NC(=O)CSc2nnc(-c3ccc(Cl)cc3Cl)n2N)c(C)c1`: the EC50 is 2.46 µM (inactive). Regarding `CN1CCCN(CC2=CC[C@H]3C[C@@H]2C3(C)C)CC1`, the EC50 is 10.1 µM.

As for `CS(=O)(=O)N1CCN(C2C3CC4CC(C3)CC2C4)CC1` (stereo not drawn), the EC50 is 4.68 µM.

In the case of `CC1CCCC(N2CCN(Cc3ccccc3)CC2)C1` (stereo not drawn), the EC50 was 0.811 µM. In the case of `Fc1ccc(N2CCN(Cc3ccccc3)CC2)cc1` it was 1.37 µM; in that of `CCOc1ccc(CN2CCN(c3ccccc3OC)CC2)cc1`, 1.32 µM.

Turning to `Cc1ccc(OCCOCCN2CCOCC2)c([N+](=O)[O-])c1`, the EC50 was 2.7 µM.

Take `Cc1ccc(CN2CCC(C(=O)N3CCN(c4ccccc4F)CC3)CC2)o1`: the EC50 was 7.9 µM (inactive).

In the case of `Cc1ccc(OCCCCN2CCOCC2)cc1`, the EC50 is 4.2 µM. For `CCOc1ccccc1C(=O)NC1CC1`, the EC50 was 26.5 µM (inactive). In the case of `O=C(CN1CCCCC1)Nc1ncc(Cc2ccc(Br)cc2)s1` it was 1.27 µM (inactive); in that of `C1=CC2CC1CC2CN1CCN(Cc2ccco2)CC1` (stereo not drawn), 2.52 µM. In the case of `Cc1c(C(=O)Nc2ccc(F)c(F)c2)cccc1[N+](=O)[O-]` it was 17.5 µM (inactive).

In the case of `CC1CCCCN1S(=O)(=O)c1ccc(NC(=O)c2ccc(Cl)cc2Cl)cc1` (stereo not drawn), the EC50 was 2.56 µM (inactive). In the case of `Cc1ccc(S(=O)(=O)n2cccn2)cc1` it was 12.9 µM (inactive); in that of `CC1CN(CC(O)COc2ccc(C(C)(C)C)cc2)CC(C)O1` (stereo not drawn), 9.95 µM. In the case of `O=C(O)C1C2C=CC(O2)C1C(=O)Nc1ccccc1F` (stereo not drawn) it was 14.8 µM (inactive); in that of `Oc1ccc(Cl)cc1CN1CCN(Cc2ccccc2)CC1`, 3.56 µM. In the case of `Cc1ccc(CN(C)C2CCN(C)CC2)s1` it was 10.2 µM; in that of `CN1CCN(CC#CC=C(c2ccccc2)c2ccccc2)CC1`, 2.57 µM (inactive); in that of `O=C(Nc1ccc(Cc2ccncc2)cc1)c1ccc([N+](=O)[O-])cc1Cl`, 1.21 µM (inactive).

Take `CCN(CC)c1cc(C)nc(N)n1`: the EC50 is 2.53 µM (inactive). In the case of `CN1CCN(CCOc2ccc(C(C)(C)c3ccccc3)cc2)CC1` it was 2.37 µM (inactive); in that of `CCOc1ccc(C(=O)NCCNC(=O)c2ccc(OCC)cc2)cc1`, 19.9 µM (inactive).

Regarding `COc1ccc(OCCCN2CCCC(C)C2)cc1` (stereo not drawn), the concentration for a half-maximal effect (EC50) was 12.5 µM. In the case of `Cc1cc(C)c(S(=O)(=O)NCCCN2CCOCC2)cc1Br` it was 0.769 µM; in that of `CCN1CCN(C(=O)c2ccc(C(C)(C)C)cc2)CC1`, 1.4 µM; in that of `COc1ccc(CN2CCN(Cc3ccccc3)CC2)c(OC)c1OC`, 11.6 µM. Regarding `CCN(CC)CC#CCOc1ccccc1`, the EC50 is 11.6 µM. With `C/C=C(\C)CN1CCN(c2ccc(C)cc2)CC1`, the half-maximal effective concentration (EC50) was 4.18 µM. As to `Cc1cccc(-c2cc(NC(=O)c3ccc([N+](=O)[O-])cc3)n[nH]2)c1`, the EC50 was 6.94 µM. In the case of `CN(CC(O)COc1ccc(Br)cc1)C1CCCCC1` (stereo not drawn), the EC50 was 6.83 µM.

Take `Cc1cc(Br)ccc1OCCCCN1CCCC1`: the half-maximal effective concentration (EC50) is 2.71 µM. Take `C(#CCN1CCCCC1)COc1ccccc1`: the half-maximal effective concentration (EC50) is 4.84 µM. In the case of `O=[N+]([O-])c1ccc(C(O)CN2CCN(Cc3ccccc3)CC2)cc1` (stereo not drawn) it was 12.6 µM. Take `CC(C)(Oc1ccc(Cl)cc1)C(=O)Nc1ccc(Br)cc1F`: the EC50 is 1.81 µM (inactive).

`OCCN1CCN(C2C3CC4CC(C3)CC2C4)CC1` (stereo not drawn): the half-maximal effective concentration (EC50) is 4.25 µM. Consider `Cc1ccc(NC(=O)CC(C)C)c(NC(=O)CC(C)C)c1`, for which the EC50 was 7.89 µM (inactive). In the case of `O=[N+]([O-])c1ccc(CNC2CCCCCC2)cc1` it was 1.88 µM. In the case of `CN1CCN(c2ccc([N+](=O)[O-])c(N3CCCCC3)c2)CC1` it was 10.1 µM; in that of `C/C(=C\c1ccccc1)CN1CCN(C)CC1`, 1.01 µM; in that of `Cc1cccc(N2CCN(C(=O)C3CCN(CC4CCCCC4)CC3)CC2)c1C`, 4.62 µM. For `CCN1CCC(N2CCN(c3ccc(Cl)cc3)CC2)CC1`, the concentration for a half-maximal effect (EC50) is 2.59 µM.

For `CCN1CCN(Cc2ccc(N(CC)CC)cc2)CC1`, the half-maximal effective concentration (EC50) was 0.498 µM.

`CC(C)(C)C1CCC(NCc2ccncc2)CC1` (stereo not drawn): the EC50 was 3.53 µM. As for `Cc1ccc2nc(NC(=O)C3CC3)sc2c1`, the EC50 was 15.1 µM (inactive).

As for `Cc1ccc(C)c(N2CCN(Cc3ccc([N+](=O)[O-])cc3)CC2)c1`, the EC50 is 1.29 µM. In the case of `O=[N+]([O-])c1ccc(CN2CCN(c3ccccc3)CC2)cc1` it was 0.175 µM.
